Results taken from patent publication US20220016271A1, “METHODS FOR TREATING CANCER” (The Brigham and Women`s Hospital, Inc., priority 2018, published 2022).

What was measured:
A549 (p53 wild type) = assay type: cell-based; details: p53 mRNA 1 μg/mL; metformin 4 or 6 mg/mL (FIG. 60)
Description: Experimental Methods. […] Then, the cell viabilities of these cells were measured by Alamar blue assay. […] The cells without receiving any treatments were labeled as the “Control”.

p53-null H1299 cells [1] = experiment: Cell viability by AlamarBlue assay; assay type: cell-based, human
Description: (§1) Cell viability and transfection efficiency of EGFP-mRNA NPs. The p53-null Hep3B cells or H1299 cells were plated in 96-well plates at a density of 3×10^3 cells per well. […] Lip2k was used as a positive control for transfection efficiency comparison with the NPs. Cell viability was tested by AlamarBlue assay, which is a non-toxic assay that can continuously check real-time cell proliferation through a microplate reader (TECAN, Infinite M200 Pro). Absorbance was examined by a 96-well SpectraMax plate reader (Molecular Devices) at 545 nm and 590 nm. To measure the transection efficiency, cells were treated with EGFP-mRNA by NPs or Lip2k for 24 hours, detached with 2.5% EDTAtrypsin, and collected in PBS solution, followed by evaluating GFP expression using flow cytometry (BD Biosystems). The percentages of EGFP-positive cells were calculated and analyzed by Flowjo software.
(§2) Combination index (CI) calculation.

p53-null Hep3B cells [2] = experiment: Cell viability by AlamarBlue assay; assay type: cell-based, human
Description: as §1, §2

H1299 cells = experiment: Apoptosis detection (Annexin V/PI, flow cytometry); assay type: cell-based, human; details: AnnV/PI co-staining
Description: (§3) Apoptosis and cell cycle detection in vitro. We used an FITC Annexin V/Propidium iodide (PI) apoptosis detection kit (BD Biosciences) to detect apoptosis. In brief, 1×10^6 cells were seeded into 6-well plates. After attachment overnight, cells were treated with p53-mRNA NPs for 24 hours before being mixed with 1 ml fresh medium and continuing to culture for another 24 h. All the attached cells together with the floating cells in the medium were harvested, washed with PBS twice, and dispersed in 1× binding buffer solution (ice-cold) at a concentration of 1×10^6 cells/ml. 5 μl of FITC Annexin V and 5 μl of PI were further mixed with 100 μl of the cell suspension. We then incubated the mixture at room temperature for 15 min in a dark environment and performed analysis using the FACS Calibur Flow Cytometer (BD Biosystems). Cells were incubated for 48 hours with empty NPs, naked p53-mRNA, or p53-mRNANPs washed in PBS and fixed with 70% ethanol overnight, then washed in PBS twice and incubated with PI for 30 minutes at 37° C.; cell-cycle fractions (percentage of cells with fractional DNA content in G1, S, and G2/M phases of the cycle) were estimated by flow cytometry and analyzed by Flowjo software.

Hep3B cells = experiment: Apoptosis detection (Annexin V/PI, flow cytometry); assay type: cell-based, human; details: AnnV/PI co-staining
Description: as §3

p53-null Hep3B cells [3] = experiment: Western blot, IF, TEM and GFP-LC3B CLSM analysis of p53, cell cycle, apoptosis, mTOR and autophagy pathways; assay type: cell-based, human
Description: (§4) Western blot assay. Cells or dissected tumors in each group were lysed in a lysis buffer (1 mM EDTA, 20 mM Tris-HCl pH 7.6, 140 mM NaCl, 1% aprotinin, 1% NP-40, 1 mM phenylmethylsulphonyl fluoride, and 1 mM sodium vanadate), and supplemented with protease inhibitor cocktail (Cell Signaling Technology). Protein concentration was detected by a bicinchoninic acid (BCA) Protein Assay Kit (Pierce). 25 μg of proteins were loaded on 6-12% precast gels (Invitrogen), and then transferred to Immobilon PVDF membranes (Bio-Rad, 162-0176 and 162-0177). The transferred membranes were blocked with 5% bovine serum albumin (BSA) in TBST (150 mM NaCl, 50 mM Tris-HCl at pH 7.4, and 0.1% Tween 20) for 1 hour at room temperature, and were further incubated with primary antibodies overnight at 4° C. The immunoreactive bands were detected with appropriate HRP-conjugated secondary antibodies. Band density was detected by enhanced chemiluminescence (ECL) detection system (Amersham/GE Healthcare).
Immunofluorescent staining and TEM detection. Cells or tumor tissues were fixed with 4% paraformaldehyde (Electron Microscopy Sciences) at room temperature for 15 min, followed by permeabilization in 0.2% Triton X-100-PBS for 10 min. Samples were further incubated with PBS blocking buffer (containing 2% BSA, 2% normal goat serum, and 0.2% gelatin) at room temperature for 30 min. Afterwards, the samples were incubated with primary antibody overnight at 4° C., washed with PBS, and incubated in goat anti-rat-Alexa Fluor 647 (Molecular Probes) in blocking buffer (1:1000 dilution) at room temperature for 60 min. Stained samples were washed with PBS, nuclei were stained using Hoechst 33342 (Molecular Probes-Invitrogen, H1399, 1:2000 dilution in PBS), and the samples were mounted on slides with Prolong Gold antifade mounting medium (Life Technologies). […]
(§5) Quantification of GFP-LC3B puncta. […] A confocal fluorescence microscope was used to observe the fluorescence of GFP-LC3B. To quantify the extent of autophagy, cells showing accumulation of GFP-LC3B in vacuoles or dots were counted. […]

p53-null H1299 cells [4] = experiment: Western blot, IF, TEM and GFP-LC3B CLSM analysis of p53, apoptosis, mTOR and autophagy pathways; assay type: cell-based, human
Description: as §4
Immunofluorescent staining and TEM detection. […]
as §5

[5] = tested on: p53-null Hep3B xenografts; experiment: In vivo therapeutic efficacy in p53-null HCC xenograft tumor model; parameters: species or system athymic nude mice; details: mRNA 750 μg/kg IV; everolimus 5 mg/kg oral; every three days, six treatments
Description: In vivo therapeutic efficacy in p53-null HCC xenograft tumor model. […] The day that first treatment was performed was designated as Day 0. […] The body weights of all the mice were also recorded over this period.
as §2

[6] = tested on: p53-null Hep3B tumor sections; experiment: In vivo mechanisms (IF, IHC, TUNEL, WB of tumor sections); parameters: species or system athymic nude mice; details: mouse
Description: In vivo mechanisms underlying the p53-mRNA NP-mediated sensitization to everolimus. […] The mice were sacrificed at 12, 24, 48, or 60 hours after the last injection of p53-mRNANPs, and the tumors were harvested for sections. Mice bearing p53-null Hep3B liver xenografts and intravenously injected with PBS were used as controls and sacrificed at 60 hours after the last injection. The expression of p53 and C-CAS3 was monitored via IF detection. Moreover, tumor sections from both the PBS group and p53-mRNANP group (60 hours after the last injection) were analyzed by IHC. The expression of p53, tumor cell apoptosis markers (BAX, C-CAS3), and proliferation markers (Ki67 and PCNA) was further assessed.
Western blot assay. Cells or dissected tumors in each group were lysed in a lysis buffer (1 mM EDTA, 20 mM Tris-HCl pH 7.6, 140 mM NaCl, 1% aprotinin, 1% NP-40, 1 mM phenylmethylsulphonyl fluoride, and 1 mM sodium vanadate), and supplemented with protease inhibitor cocktail (Cell Signaling Technology). Protein concentration was detected by a bicinchoninic acid (BCA) Protein Assay Kit (Pierce). […] The immunoreactive bands were detected with appropriate HRP-conjugated secondary antibodies. Band density was detected by enhanced chemiluminescence (ECL) detection system (Amersham/GE Healthcare). […]

[7] = tested on: Hep3B-Luc orthotopic tumors; experiment: In vivo therapeutic efficacy in p53-null orthotopic HCC model (bioluminescence); parameters: species or system athymic nude mice; details: mRNA 750 μg/kg IV; everolimus 5 mg/kg oral; every three days, 4 rounds
Description: In vivo therapeutic efficacy in p53-null orthotopic HCC model. To establish the orthotopic HCC model, luciferase-expressing Hep3B (Hep3B-Luc) cells were used. Six-week-old female athymic nude mice were obtained from Zhejiang Medical Academy Animal Center. Animal studies were conducted following the protocol approved by the Institutional Animal Ethics Committee of Hangzhou Normal University. First, anterior abdominal exposure was made and a cotton swab with iodine volts was used to sterilize this area. A one-centimeter-long midline incision was made along the anterior abdominal wall below the xiphoid after anesthesia by isoflurane, and ˜5×10^6 p53-null Hep3B-Luc cells in 50 μl of PBS were injected into the left lobe of the livers of the athymic nude mice (30 in total). The injection depth was not deeper than 2 mm. The inner and outer layers of the abdominal cavity were sutured one by one after tumor cell inoculation. […] The first treatment was performed at Day 0. On Day 12, all the mice were sacrificed. Mice were monitored for tumor growth by bioluminescent in vivo imaging every 6 days (Day 0, 6, and 12). To do this, these mice were injected intraperitoneally with 150 mg/kg D-luciferin substrate (PerkinElmer, Catalog #122799) and imaged by an IVIS Lumina S5 (PerkinElmer) imaging system.

[8] = tested on: p53-null H1299 liver metastases; experiment: In vivo therapeutic efficacy in p53-null disseminated NSCLC model (liver metastases); parameters: species or system athymic nude mice; details: mRNA 750 μg/kg IV; everolimus 5 mg/kg oral; five rounds
Description: In vivo therapeutic efficacy in p53-null disseminated NSCLC model. To establish the experimental disseminated metastatic model, ˜1×10^6p53-null H1299 cells in 100 μl of PBS were injected via tail vein into female athymic nude mice. […] The first treatment was performed at Day 0. On Day 15, all the mice were sacrificed, and one liver was randomly selected from each group for H&E staining. The liver section from each group was divided into four regions for calculation of the metastasis numbers (FIG. 55).

[9] = increasing everolimus concentrations

SMILES	cells dead / killed (A549 (p53 wild type))	viability at 0.016 µM (p53-null H1299 cells [1]; Homo sapiens, NCI-H1299, mRNA 0.415 μg/ml, everolimus 16 nM) [%]	cells still alive (p53-null H1299 cells [1]; at 64 nM)	cell viability (p53-null H1299 cells [1]; [9])	viability at 0.032 µM (p53-null Hep3B cells [2]; Homo sapiens, Hep3B, mRNA 0.415 μg/ml, everolimus 32 nM) [%]	cells still alive (p53-null Hep3B cells [2]; at 64 nM)	cell viability (p53-null Hep3B cells [2]; [9])	cell apoptosis (H1299 cells)	cell apoptosis (Hep3B cells)	autophagy activation (WB, autophagosomes by TEM, GFP-LC3B by CLSM) (p53-null Hep3B cells [3])	LC3B-2 and LC3B-2/actin ratio (WB) (p53-null Hep3B cells [3]; increase of everolimus concentration)	mTOR pathway targets (p-mTOR and p-p70S6K; WB) (p53-null Hep3B cells [3]; [9])	autophagy activation (WB, autophagosomes by TEM, GFP-LC3B by CLSM) (p53-null H1299 cells [4])	mTOR pathway targets (p-mTOR and p-p70S6K; WB) (p53-null H1299 cells [4]; [9])	tumor growth [5]	autophagy in tumors (LC3B-2 relative to actin, BECN1; WB) [6]	orthotopic tumor growth / burden (bioluminescence) [7]	metastatic nodules in the liver [8]
N.N.[Cl][Pt][Cl] [cisplatin]	less than 50%	–	–	–	–	–	–	–	–	–	–	–	–	–	–	–	–	–
CO[C@H]1C[C@@H]2CC[C@@H](C)[C@@](O)(O2)C(=O)C(=O)N2CCCC[C@H]2C(=O)O[C@H]([C@H](C)C[C@@H]2CC[C@@H](OCCO)[C@H](OC)C2)CC(=O)[C@H](C)/C=C(\C)[C@@H](O)[C@@H](OC)C(=O)[C@H](C)C[C@H](C)/C=C/C=C/C=C/1C [everolimus, Everolimus]	–	> 80	over 50%	no significant decrease in cell viability	~70	over 50%	no significant decrease in cell viability	moderate apoptotic cell death	moderate apoptotic cell death	activation of autophagy	upregulation of LC3B-2 and higher LC3B-2/actin ratios	substantially blocked	activation of autophagy	substantially blocked	moderate anti-tumor activity	induced autophagy	somewhat inhibited the growth of orthotopic tumors	moderate effects
